PubChem BioAssay (NCI)
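Where inhibition never reached the appropriate level, the endpoint shown equals the highest concentration tested. Otherwise, values were interpolated linearly from a five-concentration, 48-hour dose response in 96-well plates. GI50: concentration for 50% inhibition of growth.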

Test system: P388/ADR leukemia
Test: NCI tumour cell line growth inhibition, 48 h

CC(C)CCCCCCCCCCCCC(=O)NCC(=O)NC1C(O)C(O)C(Nc2ncnc3nc[nH]c23)OC1C(O)CO (stereo unspecified)
GI50: 5 nM
